Several values for one entry are separate records, joined by “and”; a condition that tells them apart may be missing. Identical values can stand only once. Values belong to the compound of their own block, whether it stands above or below them.
Assays:
[1] = system: LPS-induced stimulation of PGE2 production by primary human monocytes; assay: LPS induced monocyte activation (PGE2 ELISA); type: cell-based; conditions: for % Activity: Fig 4h, PGE2 production, one line per donor
Excerpt: Monocytes were isolated from whole peripheral blood donated by healthy volunteers. Protocols were approved by Health Sciences Research Ethics Board (REB) at the University of Toronto (ethics approval #22203). All experiments were repeated with three distinct donors who provided informed consent. Briefly, whole blood was layered on Histopaque-1077 (Sigma) and the mononuclear cell fraction was isolated by density centrifugation. Platelets were removed through a series of washes. Monocytes were seeded at a density of 200,000/well in a 96-well plate (Becton Dickinson). Medium was changed 2 h post-seeding to remove non-adherent cells. […] Dex derived from degraded Dex-TEG-Dex was prepared by dissolving Dex-TEG-Dex in ethanol at 10 mg/ml, adding to culture medium to achieve a concentration of 10 µg/ml, and subsequent incubation of the solution at 37 °C and 5% CO2 until the dimer had fully degraded, as confirmed by HPLC. […] Samples were incubated for 15 min at 37 °C and 5% CO2, followed by addition of a 2 µl lipopolysaccharide stock solution (LPS, Sigma) to obtain a final concentration of 50 µg/ml. Following overnight exposure to LPS, supernatant was collected and analyzed for PGE2 using a PGE2 ELISA kit according to the manufacturer’s instructions (R&D Systems).

In vitro release = type: physicochemical; conditions: for Cumulative TA Release: samples and avg; for Cumulative TA Release (%): FBS; for Cumulative TA Release (%) / Cumulative SM Release (%), avg / Cumulative SM Release (ng), avg: avg; for Cumulative SM Release (%), avg / Cumulative SM Release (ng), avg: Fig 6c
Description: Pellets for release studies. Crystalline drug dimers were weighed on a stainless steel coupon. In the case of blends with a second drug, the dimer and drug were mixed at the desired mass ratio with mortar and pestle prior to weighing. Samples were transferred to a heat press (Carver Laboratory Press). A PTFE mold containing an array of 1 mm diameter holes of 1 mm depth was placed on top of the melt, and pressure was applied for 2 min. Molded pellets were cooled to room temperature and punched out of the mold, yielding a pellet of 1 mm height × 1 mm diameter.
Release studies were carried out using different media, including PBS (pH 7.4, Gibco), 100% FBS (Sigma, F1051), 1% FBS in PBS pH 7.4, and 3.6% BSA (Sigma, A7906) in PBS (pH 7.4, Gibco). […] Samples were incubated in release medium at 37 °C under constant agitation on an orbital shaker at 115 rpm (VWR). At designated timepoints, sampling was performed by complete removal of medium and replenishment with fresh buffer. Sampling timepoints included 24 h and then every 3–4 days thereafter. For PBS release conditions, samples were analyzed directly. For samples with protein (100% FBS, 1% FBS, 3.6% BSA), protein was precipitated by addition of acetonitrile. Samples were vortexed and centrifuged to separate extracted drug from precipitated protein. The supernatant was then analyzed for drug concentration by HPLC.

- IC50 ([1]; primary human monocytes, N=3, listed as Dex from Dex-TEG-Dex, read-out: IC50, inhibition of LPS-induced PGE2 production): 0.93 ± 0.49 nM
Compound: C[C@@H]1C[C@H]2[C@@H]3CCC4=CC(=O)C=C[C@]4(C)[C@@]3(F)[C@@H](O)C[C@]2(C)[C@@]1(O)C(=O)CO [Dex from Degraded Dex-TEG-Dex]
- % Activity ([1]; 0.05 nM, 50 pM): 133.56% and 95.05% and 109.87%
- % Activity ([1]; 0.1 nM, 0.0001 µM): 71.31% and 70.97% and 72.68%
- % Activity ([1]; 0.5 nM, 0.0005 µM): 92.91% and 70.93% and 94.26%
- % Activity ([1]; 1 nM, 0.001 µM): 74.23% and 63.23% and 72.65%
- % Activity ([1]; 5 nM, 0.005 µM): 59.75% and 37.69% and 27.50%
- % Activity ([1]; 10 nM, 0.01 µM): 60.49% and 37.84% and 31.81%
- % Activity ([1]; 100 nM, 0.1 µM): 63.88% and 16.49% and 17.83%

- Cumulative TA Release (In vitro release; Fig 5b pellet 1x1 mm, 4 ml FBS, Day 3, mean): 7755.10 ng
- Cumulative TA Release (In vitro release; Fig 5b pellet 1x1 mm, 4 ml FBS, Day 10, mean): 28286.75 ng
- Cumulative TA Release (In vitro release; Fig 5b pellet 1x1 mm, 4 ml FBS, Day 14, mean): 38450.90 ng
- Cumulative TA Release (%) (In vitro release; Fig 5b pellet, Day 1): 0.13%
- Cumulative TA Release (%) (In vitro release; Fig 5b pellet, Day 3): 0.96%
- Cumulative TA Release (%) (In vitro release; Fig 5b pellet, Day 7): 2.37%
- Cumulative TA Release (%) (In vitro release; Fig 5b pellet, Day 10): 3.49%
- Cumulative TA Release (%) (In vitro release; Fig 5b pellet, Day 14): 4.75%
- Cumulative TA Release (In vitro release; Fig 5f microparticles, 10 ml FBS, 1st time point (day not given)): 2977.29 ng and 2848.37 ng and 4097.61 ng
- Cumulative TA Release (In vitro release; Fig 5f microparticles, 10 ml FBS, 1st time point (day not given), mean): 3307.76 ng
- Cumulative TA Release (In vitro release; Fig 5f microparticles, 10 ml FBS, 2nd time point (day not given), mean): 15516.68 ng
- Cumulative TA Release (In vitro release; Fig 5f microparticles, 10 ml FBS, 3rd time point (day not given), mean): 50675.26 ng
- Cumulative TA Release (In vitro release; Fig 5f microparticles, 10 ml FBS, 4th time point (day not given), mean): 62139.35 ng
- Cumulative TA Release (In vitro release; Fig 5f microparticles, 10 ml FBS, 5th time point (day not given), mean): 84224.47 ng
- Cumulative TA Release (%) (In vitro release; Fig 5f microparticles, 1st time point): 2.67%
- Cumulative TA Release (%) (In vitro release; Fig 5f microparticles, 2nd time point): 12.50%
- Cumulative TA Release (%) (In vitro release; Fig 5f microparticles, 3rd time point): 40.83%
- Cumulative TA Release (%) (In vitro release; Fig 5f microparticles, 4th time point): 50.07%
- Cumulative TA Release (%) (In vitro release; Fig 5f microparticles, 5th time point): 67.87%
Compound: CC1(C)OC2CC3C4CCC5=CC(=O)C=CC5(C)C4(F)C(O)CC3(C)C2(C(=O)COC(=O)OCCOCCOCCOC(=O)OCC(=O)C23OC(C)(C)OC2CC2C4CCC5=CC(=O)C=CC5(C)C4(F)C(O)CC23C)O1 (stereo not shown) [TA-TEG-TA]
- Cumulative TA Release (In vitro release; Fig 5b pellet 1x1 mm, 4 ml FBS, Day 3): 5664.02 ng and 5830.61 ng and 10508.43 ng and 8884.74 ng and 7887.68 ng
- Cumulative TA Release (In vitro release; Fig 5b pellet 1x1 mm, 4 ml FBS, Day 10): 24788.43 ng and 27087.36 ng and 33297.79 ng and 37315.92 ng and 18944.25 ng
- Cumulative TA Release (In vitro release; Fig 5b pellet 1x1 mm, 4 ml FBS, Day 14): 34850.40 ng and 35016.99 ng and 40361.16 ng and 49853.28 ng and 32172.64 ng
- Cumulative TA Release (In vitro release; Fig 5f microparticles, 10 ml FBS, 2nd time point (day not given)): 14594.84 ng and 16537.75 ng and 15417.43 ng
- Cumulative TA Release (In vitro release; Fig 5f microparticles, 10 ml FBS, 3rd time point (day not given)): 49825.05 ng and 51101.90 ng and 51098.83 ng
- Cumulative TA Release (In vitro release; Fig 5f microparticles, 10 ml FBS, 4th time point (day not given)): 60024.55 ng and 61820.14 ng and 64573.36 ng
- Cumulative TA Release (In vitro release; Fig 5f microparticles, 10 ml FBS, 5th time point (day not given)): 83317.99 ng and 79582.57 ng and 89772.87 ng

- Cumulative SM Release (%), avg (In vitro release; Day 1): 3.88%
- Cumulative SM Release (ng), avg (In vitro release; Day 1): 5838.79 ng
- Cumulative SM Release (%), avg (In vitro release; Day 3): 5.66%
- Cumulative SM Release (ng), avg (In vitro release; Day 3): 8518.35 ng
- Cumulative SM Release (%), avg (In vitro release; Day 8): 6.76%
- Cumulative SM Release (ng), avg (In vitro release; Day 8): 10163.91 ng
- Cumulative SM Release (%), avg (In vitro release; Day 10): 7.42%
- Cumulative SM Release (%), avg (In vitro release; Day 14): 8.14%
- Cumulative SM Release (ng), avg (In vitro release; Day 14): 12242.96 ng
Compound: CCN(CC)CCNC(=O)c1c(C)[nH]c(/C=C2\C(=O)Nc3ccc(F)cc32)c1C [sunitinib malate, reference compound]

From publication PMC8129133, “Polymer-free corticosteroid dimer implants for controlled and sustained drug delivery” (Nature Communications, 2021)
